Reference: ChEMBL document CHEMBL5214945, “Identification of small-molecule inhibitors of the DNA repair proteins RuvAB from Pseudomonas aeruginosa” (Bioorg Med Chem, 2022)
Active and inactive are the calls of the source. The calls are words filed in the database; no cut-off is given here.

Columns and labels:
[1] = (§1) Inhibition of Pseudomonas aeruginosa RuvA/RuvB protein complex helicase activity expressed in Escherichia coli BL21(DE3) assessed as inhibition of HJ branch migration preincubated for 15 mins followed by substrate addition and measured after 1 hr using 5'-FAM labelled 5'-CACTGTGATGCACGATGATTGACGACAGTAGTCAGTGCTGCAGTGGTCAGGTGTC-3' HJ-a duplex DNA as substrate in presence of ATP by PAGE analysis
[2] = as §1, with “Bacillus subtilis” for “Pseudomonas aeruginosa”
[3] = as §1, with “Thermus thermophilus” for “Pseudomonas aeruginosa”
[4] = tested on: Pseudomonas aeruginosa; test: Inhibition of Pseudomonas aeruginosa RuvA expressed in Escherichia coli BL21(DE3) binding to HJ DNA assessed as reduction in RuvA-HJ DNA complex formation at 40 uM and measured after 15 mins using 5'-FAM labelled Holliday junction DNA as substrate by EMSA analysis
[5] = tested on: Pseudomonas aeruginosa; test: Inhibition of Pseudomonas aeruginosa RuvA expressed in Escherichia coli BL21(DE3) binding to HJ DNA assessed as reduction in RuvA-HJ DNA complex formation at >20 uM and measured after 15 mins using 5'-FAM labelled Holliday junction DNA as substrate by EMSA analysis
[6] = tested on: Pseudomonas aeruginosa; test: Antimicrobial activity against Pseudomonas aeruginosa ATCC27853 assessed as colony formation at 2 uM preincubated for 1 hr followed by UV-light irradiation for 5 mins then culture on LB-agar plate for overnight by colony counting method; assay type: functional, organism-based
[7] = tested on: Pseudomonas aeruginosa; test: Inhibition of Pseudomonas aeruginosa RuvA expressed in Escherichia coli BL21(DE3) binding to HJ DNA assessed as reduction in RuvA-HJ DNA complex formation at >10 uM and measured after 15 mins using 5'-FAM labelled Holliday junction DNA as substrate by EMSA analysis
[8] = tested on: Pseudomonas aeruginosa; test: Antimicrobial activity against Pseudomonas aeruginosa ATCC27853 assessed as colony formation at 50 uM preincubated for 1 hr followed by UV-light irradiation for 5 mins then culture on LB-agar plate for overnight by colony counting method; assay type: functional, organism-based
[9] = Inhibition of HJ-DNA dependent Pseudomonas aeruginosa RuvB ATPase activity expressed in Escherichia coli BL21(DE3) assessed as inhibition of ATP hydrolysis preincubated with compound followed by ATP addition and measured after 1 hr by Kinase-Glo reagent based luminescence analysis
[10] = tested on: Pseudomonas aeruginosa; test: Binding affinity to CM5 chip immobilized Pseudomonas aeruginosa wild type RuvB expressed in Escherichia coli BL21(DE3) assessed as association rate constant (ka) measured for 240 sec by surface plasmon resonance analysis
[11] = tested on: Pseudomonas aeruginosa; test: Binding affinity to CM5 chip immobilized Pseudomonas aeruginosa wild type RuvB expressed in Escherichia coli BL21(DE3) assessed as dissociation rate constant (kd) measured for 180 sec by surface plasmon resonance analysis
[12] = Binding affinity to CM5 chip immobilized Pseudomonas aeruginosa wild type RuvB expressed in Escherichia coli BL21(DE3) assessed as dissociation constant measured for 180 sec by surface plasmon resonance analysis
[13] = tested on: Pseudomonas aeruginosa; test: Binding affinity to CM5 chip immobilized Pseudomonas aeruginosa RuvB D114N mutant expressed in Escherichia coli BL21(DE3) assessed as association rate constant (ka) measured for 240 sec by surface plasmon resonance analysis
[14] = tested on: Pseudomonas aeruginosa; test: Binding affinity to CM5 chip immobilized Pseudomonas aeruginosa RuvB D114N mutant expressed in Escherichia coli BL21(DE3) assessed as dissociation rate constant (kd) measured for 180 sec by surface plasmon resonance analysis
[15] = Binding affinity to CM5 chip immobilized Pseudomonas aeruginosa RuvB D114N mutant expressed in Escherichia coli BL21(DE3) assessed as dissociation constant measured for 180 sec by surface plasmon resonance analysis

IC50 [1] [µM]	inhibition [4]	inhibition [5]	inhibition [7]	SMILES	IC50 [2] [µM]	IC50 [3] [µM]	Activity [6]	Activity [8]	IC50 [9] [µM]	Ka [10]	Kdiss [11]	Kd [12] [µM]	Ka [13]	Kdiss [14]	Kd [15] [µM]
4.64	Active	Active	–	CC1=C(C)C(=O)C(CCCCCCCCCC[P+](c2ccccc2)(c2ccccc2)c2ccccc2)=CC1=O	13.5	7.9	Active	–	–	–	–	–	–	–	–
0.377	Active	–	Active	COC(=O)[C@]12CCC(C)(C)C[C@H]1[C@H]1C(=O)C=C3[C@@]4(C)C=C(C#N)C(=O)C(C)(C)[C@@H]4CC[C@@]3(C)[C@]1(C)CC2 [BARDOXOLONE METHYL]	–	–	–	Active	–	–	–	–	–	–	–

SMILES	IC50 [1] [µM]	inhibition [4]	inhibition [5]	inhibition [7]	IC50 [2] [µM]	IC50 [3] [µM]	Activity [6]	Activity [8]	IC50 [9] [µM]	Ka [10]	Kdiss [11]	Kd [12] [µM]	Ka [13]	Kdiss [14]	Kd [15] [µM]
O=C(O[C@@H]1O[C@@H]2COC(=O)c3cc(O)c(O)c(O)c3-c3c(cc(O)c(O)c3O)C(=O)O[C@H]([C@H]1O)[C@@H]2O)c1cc(O)c(O)c(O)c1 [CORILAGIN]	0.399	–	–	–	0.84	1.11	–	Active	2.32	1.6 10^4/M/s	2.2 10^-3/s	0.13	5.9 10^3/M/s	2.4 10^-3/s	0.41
